Values quoted from earlier work, collected in the PKSmart pharmacokinetics tables (Seal et al. 2025).

Columns and labels:
[1] = Lombardo et al. 2013, J Clin Pharmacol 53:178, doi 10.1177/0091270012440282; details: for Vd / clearance: in vivo, iv; for fraction unbound: plasma
[2] = Lombardo, Berellini, Obach 2018, Drug Metab Dispos 46:1466, doi 10.1124/dmd.118.082966; details: human; for MRT / Vd / clearance / half-life: in vivo, iv; for fraction unbound: plasma

| Structure (SMILES) | Vd ([1]; rat) [L/kg] | clearance ([1]; rat) [mL/min/kg] | fraction unbound ([1]; rat) | MRT [2] [h] | Vd [2] [L/kg] | clearance [2] [mL/min/kg] | half-life [2] [h] | fraction unbound [2] | Vd ([1]; dog) [L/kg] | clearance ([1]; dog) [mL/min/kg] | fraction unbound ([1]; dog) | Vd ([1]; monkey) [L/kg] | clearance ([1]; monkey) [mL/min/kg] | fraction unbound ([1]; monkey) |
| --- | --- | --- | --- | --- | --- | --- | --- | --- | --- | --- | --- | --- | --- | --- |
| C[C@@H]1CN(C2CCC(C#N)(c3ccc(F)cc3)CC2)CC[C@]1(C(=O)O)c1ccccc1 (stereo partly drawn) | 1.36 | 27 | 0.46 | 45.3 | 1.17 | 0.43 | 33 | 0.453 | – | – | – | – | – | – |
| COc1ccc(Cc2nccc3cc(OC)c(OC)cc23)cc1OC | – | – | 0.09 | 1.4 | 1 | 11 | 1.8 | – | 3.01 | 21.8 | 0.1 | – | – | – |
| CC#CCC(C)[C@H](O)/C=C/[C@@H]1[C@H]2C/C(=C/CCCC(=O)O)C[C@H]2C[C@H]1O (stereo partly drawn) | 0.79 | 32.4 | – | – | 0.37 | 16 | 0.57 | 0.4 | 0.93 | 67.2 | – | – | – | – |
| CC(=O)Oc1ccccc1C(=O)O | 0.4 | 87 | – | 0.3 | 0.22 | 12 | 0.26 | 0.68 | – | – | – | – | – | – |
| CN1CCCC(n2nc(Cc3ccc(Cl)cc3)c3ccccc3c2=O)CC1 (stereo not drawn) | 1.8 | 58 | 0.1 | 27 | 15 | 9 | 22 | 0.17 | 8.1 | 50 | 0.0826 | – | – | – |
| CCC1(c2ccccc2)C(=O)NC(=O)NC1=O | 1.02 | 0.8 | 0.64 | 140 | 0.54 | 0.063 | 99 | – | 0.79 | 0.1 | 0.54 | – | – | – |
| CC(C)(C)NC(=O)C1CC[C@H]2[C@@H]3CC[C@H]4NC(=O)C=C[C@]4(C)[C@H]3CC[C@]12C (stereo partly drawn) | – | – | – | 7.6 | 1.1 | – | 6 | – | – | – | 0.18 | – | – | – |
| CC(C)NCC(O)COc1cccc2ccccc12 (stereo not drawn) | 4.58 | 94.3 | 0.1 | 4.3 | 3.1 | 12 | 3.4 | – | 6.79 | 51.8 | 0.04 | 2.28 | 20.8 | 0.03 |
| COC(=O)C1=C(C)NC(C)=C(C(=O)OC)C1c1ccccc1[N+](=O)[O-] | 0.27 | – | 0.035 | – | – | – | 1.9 | – | 1.15 | – | – | – | – | – |
| CC(=N)N1CC[C@H](SC2=C(C(=O)O)N3C(=O)C([C@@H](C)O)[C@H]3C2)C1 (stereo partly drawn) | 0.2 | 27.7 | 0.95 | 1.2 | 0.19 | 2.6 | 0.96 | – | 0.21 | 4.85 | 0.95 | 0.3 | 6.52 | 0.93 |
| O=[N+]([O-])O[C@H]1CO[C@H]2[C@@H]1OC[C@H]2O[N+](=O)[O-] | 2.6 | 122 | – | 1 | 1.9 | 31 | 1.7 | 0.72 | 3 | 180 | – | 1.7 | 58.8 | – |
| COc1ccc(C(CN(C)C)C2(O)CCCCC2)cc1 (stereo not drawn) | 6.6 | 64.5 | – | 5.2 | 4.4 | 14 | 5 | – | 3.3 | 13.5 | 0.593 | 3.5 | 41 | 0.708 |
| CC1=NC(=O)[C@](CCN(C(C)C)C(C)C)(c2ccccc2)[C@H]2CCCCN12 | 4.2 | 48 | 0.63 | 1.58 | 0.58 | 6.79 | 1.89 | 0.7 | 1.3 | 12 | 0.618 | 1.6 | 20 | 0.656 |
| Nc1ccc(S(=O)(=O)Nc2ncccn2)cc1 | 0.34 | 1.1 | 0.86 | 8.8 | 0.29 | 0.55 | 7 | – | – | – | 0.78 | 0.5 | 0.64 | 0.463 |
| C=CC1=C(C(=O)O)N2C(=O)C(=NC(=O)C(NOCC(=O)O)c3csc(N)n3)[C@H]2SC1 (stereo partly drawn) | 0.4 | 6 | 0.4 | – | 0.24 | 1 | 3.2 | – | 0.24 | 0.4 | 0.07 | – | – | – |
| O=c1n(CCCN2CCN(c3cccc(Cl)c3)CC2)nc2ccccn12 | 1.76 | 51.8 | 0.12 | 6.2 | 0.52 | 1.4 | 7.3 | 0.08 | – | – | – | – | – | – |
| COC(=O)C1=C(C)NC(C)=C(C(=O)OCCN(C)Cc2ccccc2)C1c1cccc([N+](=O)[O-])c1 (stereo not drawn) | 1.9 | – | 0.084 | 1.5 | 1 | – | 4.1 | – | 2.39 | – | 0.062 | 1.23 | – | 0.06 |
| C=c1cc(C)[nH]c1=Cc1c(O)[nH]c2ccccc12 | 1.6 | 45 | 0.007 | 1.17 | 0.98 | 14 | 0.83 | 0.008 | 1.4 | 52 | – | 1.63 | 27.7 | – |
| O=P(O)(O)C(O)(Cn1ccnc1)P(=O)(O)O | – | – | – | 4.5 | 0.6 | 2.2 | 11 | 0.78 | 0.28 | 4.13 | – | – | – | – |
| COc1ccnc(C[S+](O)c2nc3ccc(OC(F)F)cc3[n-]2)c1OC (stereo not drawn) | 0.35 | 8.5 | – | 1.3 | 0.17 | 2.2 | 1.9 | 0.02 | – | – | – | – | – | – |
| CCCCNC(=O)NS(=O)(=O)c1ccc(C)cc1 | 0.13 | 0.42 | – | 9.5 | 0.12 | – | 7 | – | – | – | – | – | – | – |
| CC[C@@H](CO)NCCN[C@@H](CC)CO | – | – | – | 2.7 | 1.7 | 10 | 3.1 | 0.18 | 3.8 | 13 | – | – | – | – |
| OCCN1CCN(CCCN2c3ccccc3Sc3ccc(C(F)(F)F)cc32)CC1 | – | – | – | 5 | 2.9 | 9.7 | 12.3 | 0.04 | 5.5 | 15.4 | – | – | – | – |
| CN1CCN(c2c(F)cc3c(=O)c(C(=O)O)cn(CCF)c3c2F)CC1 | 1.3 | 5.8 | 0.49 | 11 | 1.6 | 2.4 | 8.6 | – | 1.3 | 1.6 | 0.51 | 1.2 | 4 | 0.607 |
| CC1(C)S[C@@H]2C(NC(=O)C(NC(=O)N3CCN(S(C)(=O)=O)C3=O)c3ccccc3)C(=O)N2C1C(=O)O (stereo partly drawn) | 0.3 | 50 | 0.65 | 0.71 | 0.09 | 2.1 | 1.2 | 0.7 | – | – | – | – | – | – |
| CCc1nn(CCCN2CCN(c3cccc(Cl)c3)CC2)c(=O)n1CCOc1ccccc1 | – | – | – | 1.1 | 0.51 | 7.5 | 1.2 | – | 3.24 | 26 | – | – | – | – |
| CC(CC(c1ccccc1)c1ccccc1)NC(C)(C)C (stereo not drawn) | – | – | – | 81 | 5.1 | 1.1 | 56 | – | – | 41 | 0.14 | – | – | – |
